Converted amounts (≈) assume the structure as drawn. Each block holds one compound with its values, some of them ahead of it.
Key:
Type in all cases: cell-based
[1] = system: C3H/HeN mouse splenocytes stimulated with Concanavalin A (Con A); experiment: Suppressive effect on mitogenic activity of mouse splenocytes in vitro, Con A as mitogen (MTT); details: Con A 5 μg/ml as mitogen, 3 days
Experimental: (§1) Experiment 1 Suppressive Effect on a Mitogenic Activity of Mouse Splenocytes In Vitro
(§2) In 96-well microtiter plate 5×10^5 C3H/HeN mouse splenocytes suspended in 0.1 ml of 10% fetal bovine serum-fortified RPMI 1640 medium containing 2 mM of sodium bicarbonate, 50 units/ml of penicillin, 50 μg/ml of streptomycin and 5×10^−5 M of 2-mercaptoethanol were added. Then, 5 μg/ml of Concanavalin A (Con A) or 10 μg/ml of lipopolysaccharide (LPS) as a mitogen and the compound of a pre-determined concentration of the present invention were added to each well so that a final volume of each well reached 0.2 ml. Each compound of the present invention was dissolved in dimethylsulfoxide (DMSO) and diluted with the above RPMI 1640 medium to adjust the final concentration of 100 ng/ml or less. The splenocytes in the 96-well microtiter plate were cultivated at 37° C. for 3 days in an incubator keeping the humidity 100%, carbon dioxide 5% and air 95%. Then, 25 μl of 6 mg/ml MTT [3-(4,5-dimethylthiazol-2-yl)-2,5-diphenyltetrazolium bromide] (Sigma) was added to the each well and cultivated at 37° C. for 4 hours under the same conditions. After the cultivation, 50 μl of 0.02 N hydrochloric acid in 20% sodium dodecyl sulfate (SDS) was added to formazan generated and left at 37° C. for 24 hours for dissolving formazan. An absorption intensity (OD) of formazan generated in proportion to the number of living cells was measured with an immunoreader (InterMed) equipped with a 570 nm filter (The Journal of Immunological Method, 65, 55-63, 1983). The 50% inhibitory concentration of a cell proliferation (IC 50) was calculated from a correlation between the concentration of the compound of the present invention and the absorption intensity.

[2] = system: C3H/HeN mouse splenocytes stimulated with lipopolysaccharide (LPS); experiment: Suppressive effect on mitogenic activity of mouse splenocytes in vitro, LPS as mitogen (MTT); details: LPS 10 μg/ml as mitogen, 3 days
Experimental: as §1, §2

[3] = system: mouse thymoma strain EL4 cells; experiment: Anti-proliferative activity on EL4 cells (MTT); details: 3 days
Experimental: Experiment 2 Anti-Proliferative Activity on EL4 Cells
In 96-well microtiter plate 4×10^4/0.1 ml of mouse thymoma strain EL4 cells were added and 0.1 ml of the compound of the present invention was added to the mixture so that the concentration was in the range of 0-5,000 ng/ml. After the cultivation for 3 days, the IC50 was calculated by the MTT method as described in Experiment 1.

[4] = system: IL-2 production of mouse T cell strain EL-4 (TPA); experiment: Suppressive effect on the cytokine production of mouse T cell strain EL-4: IL-2; details: EL-4, TPA 10 ng/ml, 24 hours, ELISA
Experimental: (§3) Experiment 8 Suppressive Effect on the Cytokine Production of a Mouse T Cell Strain EL-4 In 48-well plate were added 2×10^5 mouse T cell strain EL-4 which were suspended in 0.2 ml of 1% fetal bovine serum-added RPMI 1640 medium (2 mM of sodium bicarbonate, 50 units/ml of penicillin, 50 μg/ml of streptomycin and 5×10^−5 M of 2-mercaptoethanol were added) and the compound of the present invention of a predetermined concentration. TPA was added as a cell stimulater at a final concentration of 10 ng/ml to adjust a final volume of each well to 0.4 ml. Each compound of the present invention was dissolved in DMSO and diluted with the above RPMI 1640 medium, and then for added at a final concentration of 100 ng/ml or less. The cells in the 48-well plate were cultivated in an incubator keeping the humidity 100%, carbon dioxide 5% and air 95% at 37° C. for 24 hours to collect a supernatant of each well. The amount of IL-2, IL-4 and IL-5 released in the medium of each well were measured with the ELISA kit (Amersham K. K.) to be taken as an index of the cytokine production of the cells. TPA free group (-TPA) was used as a control.

[5] = system: IL-4 production of mouse T cell strain EL-4 (TPA); experiment: Suppressive effect on the cytokine production of mouse T cell strain EL-4: IL-4; details: EL-4, TPA 10 ng/ml, 24 hours, ELISA
Experimental: as §3

[6] = system: IL-5 production of mouse T cell strain EL-4 (TPA); experiment: Suppressive effect on the cytokine production of mouse T cell strain EL-4: IL-5; details: EL-4, TPA 10 ng/ml, 24 hours, ELISA
Experimental: as §3

SMILES: CC#CCOc1ccc(-c2c(OC)cc(-c3ccc(O)cc3)c(OC)c2O)cc1O [Compound I-40]
ConA IC50 [1]: 0.0061 µg/mL
LPS IC50 [2]: 0.0165 µg/mL
EL-4 IC50 [3]: 0.0374 µg/mL

SMILES: C=CCOc1ccc(-c2c(OC)cc(-c3ccc(O)cc3)c(OC)c2O)cc1O [Compound I-46]
ConA IC50 [1]: 0.0106 µg/mL
LPS IC50 [2]: 0.0239 µg/mL
EL-4 IC50 [3]: 0.0675 µg/mL

SMILES: C/C=C/COc1ccc(-c2c(OC)cc(-c3ccc(O)cc3)c(OC)c2O)cc1O [Compound I-49]
ConA IC50 [1]: 0.00889 µg/mL
LPS IC50 [2]: 0.0162 µg/mL
EL-4 IC50 [3]: 0.0317 µg/mL

SMILES: C/C=C\COc1ccc(-c2c(OC)cc(-c3ccc(O)cc3)c(OC)c2O)cc1O [Compound I-50]
ConA IC50 [1]: 0.00383 µg/mL
LPS IC50 [2]: 0.0092 µg/mL
EL-4 IC50 [3]: 0.0119 µg/mL

SMILES: COc1cc(-c2ccc3c(c2)OCO3)c(OC)c(O)c1-c1ccc(OCC=C(C)C)c(O)c1 [Compound I-62]
ConA IC50 [1]: 0.0292 µg/mL
LPS IC50 [2]: 0.025 µg/mL
EL-4 IC50 [3]: 0.0234 µg/mL

SMILES: COc1cc(-c2ccc(OCc3ccccc3)c(O)c2)c(OC)cc1-c1ccc(OCc2ccccc2)c(O)c1 [Compound I-63]
ConA IC50 [1]: 0.013 µg/mL
LPS IC50 [2]: 0.027 µg/mL
EL-4 IC50 [3]: 0.016 µg/mL

SMILES: COc1cc(-c2ccc(OCC=C(C)C)c(O)c2)c(OC)cc1-c1ccc(OCC=C(C)C)c(O)c1 [Compound I-66]
ConA IC50 [1]: 0.00022 µg/mL
LPS IC50 [2]: 0.00035 µg/mL
EL-4 IC50 [3]: 0.00048 µg/mL

SMILES: COc1cc(-c2ccc(O)cc2)c(OC)c(O)c1-c1ccc(OC/C=C/Br)c(O)c1 [Compound I-103]
ConA IC50 [1]: 0.0034 µg/mL
LPS IC50 [2]: 0.0037 µg/mL
EL-4 IC50 [3]: 0.0046 µg/mL

SMILES: C/C=C\COc1ccc(-c2c(OC)cc(-c3ccc(O)cc3)c(OC)c2O)cc1O [Compound I-173]
ConA IC50 [1]: <0.02 µg/mL
LPS IC50 [2]: <0.02 µg/mL
EL-4 IC50 [3]: <0.02 µg/mL

SMILES: C=C/C=C\COc1ccc(-c2c(OC)cc(-c3ccc(O)cc3)c(OC)c2O)cc1O [Compound I-175]
ConA IC50 [1]: <0.02 µg/mL
LPS IC50 [2]: 0.0294 µg/mL
EL-4 IC50 [3]: <0.02 µg/mL

SMILES: COc1cc(-c2ccc(O)cc2)c(OC)c(O)c1-c1ccc(OCc2ccco2)c(O)c1 [Compound I-211]
ConA IC50 [1]: <0.02 µg/mL
LPS IC50 [2]: <0.02 µg/mL
EL-4 IC50 [3]: <0.02 µg/mL

SMILES: COc1cc(-c2ccc(N(C)C)cc2)c(OC)c(O)c1-c1ccc(OCc2ccc(C)cc2)c(O)c1 [Compound I-256]
ConA IC50 [1]: <0.02 µg/mL
LPS IC50 [2]: 0.0287 µg/mL
EL-4 IC50 [3]: 0.31 µg/mL

SMILES: COc1cc(-c2ccc(O)cc2)c(OC)c(O)c1-c1ccc(OCc2ccc(C)cc2C)c(O)c1 [Compound I-309]
IC50 IL-2 [4]: >0.5 µg/mL
IC50 IL-4 [5]: 0.029 µg/mL (≈ 0.0614 µM)
IC50 IL-5 [6]: 0.01 µg/mL (≈ 0.0212 µM)

The next lines start with results.

EL-4 IC50 [3]: <0.02 µg/mL
SMILES: CC/C=C\COc1ccc(-c2c(OC)cc(-c3ccc(O)cc3)c(OC)c2O)cc1O [Compound I-9]
ConA IC50 [1]: <0.02 µg/mL
LPS IC50 [2]: <0.02 µg/mL

EL-4 IC50 [3]: 0.0462 µg/mL
SMILES: COc1cc(-c2ccc(O)cc2)c(OC)c(CO)c1-c1ccc(OCC=C(C)C)c(OS(C)(=O)=O)c1 [Compound I-12]
ConA IC50 [1]: 0.0013 µg/mL
LPS IC50 [2]: 0.0028 µg/mL

EL-4 IC50 [3]: 0.00489 µg/mL
SMILES: COc1cc(-c2ccc(O)cc2)c(OC)c(O)c1-c1ccc(OCC=C(C)Cl)c(O)c1 [Compound I-41]
ConA IC50 [1]: 0.00073 µg/mL
LPS IC50 [2]: 0.00174 µg/mL

EL-4 IC50 [3]: 0.0027 µg/mL
SMILES: COc1cc(-c2ccc(O)cc2)c(OC)c(C)c1-c1ccc(OCC=C(C)C)c(O)c1 [Compound I-106]
ConA IC50 [1]: 0.0006 µg/mL
LPS IC50 [2]: 0.0004 µg/mL

EL-4 IC50 [3]: 0.012 µg/mL
SMILES: COCOc1c(OC)c(-c2ccc(OC)cc2)cc(OC)c1-c1ccc(OCc2ccccc2)c(O)c1 [Compound I-107]
ConA IC50 [1]: 0.0006 µg/mL
LPS IC50 [2]: 0.0007 µg/mL

EL-4 IC50 [3]: <0.02 µg/mL
SMILES: COCOc1c(OC)c(-c2ccc(OS(C)(=O)=O)cc2)cc(OC)c1-c1ccc(OCc2ccccc2)c(O)c1 [Compound I-163]
ConA IC50 [1]: <0.02 µg/mL
LPS IC50 [2]: <0.02 µg/mL

EL-4 IC50 [3]: 0.312 µg/mL
SMILES: COc1cc(-c2c(OC)cc(-c3ccc(OS(C)(=O)=O)cc3)c(OC)c2OS(C)(=O)=O)ccc1OCC=C(C)C [Compound I-248]
ConA IC50 [1]: <0.01 µg/mL
LPS IC50 [2]: <0.01 µg/mL

EL-4 IC50 [3]: <0.02 µg/mL
SMILES: COc1cc(-c2ccc(N(C)C)cc2)c(OC)c(O)c1-c1ccc(OCC=C(C)C)c(O)c1 [Compound I-255]
ConA IC50 [1]: <0.02 µg/mL
LPS IC50 [2]: <0.02 µg/mL

IC50 IL-2 [4]: >1 µg/mL
IC50 IL-4 [5]: 0.01 µg/mL (≈ 0.0139 µM)
IC50 IL-5 [6]: 0.34 µg/mL (≈ 0.472 µM)
SMILES: COc1cc(-c2ccc(OS(C)(=O)=O)cc2)c(OC)c(OS(C)(=O)=O)c1-c1ccc(OCc2ccc(C(C)C)cc2)c(OS(C)(=O)=O)c1 [Compound I-305]

IC50 IL-2 [4]: >1 µg/mL
IC50 IL-4 [5]: 0.052 µg/mL (≈ 0.0713 µM)
IC50 IL-5 [6]: 0.023 µg/mL (≈ 0.0315 µM)
SMILES: COc1cc(-c2ccc(OS(C)(=O)=O)cc2)c(OC)c(OS(C)(=O)=O)c1-c1ccc(OCc2ccc3ccccc3n2)c(OS(C)(=O)=O)c1 [Compound I-307]

IC50 IL-2 [4]: >1 µg/mL
IC50 IL-4 [5]: 0.072 µg/mL (≈ 0.121 µM)
IC50 IL-5 [6]: 0.38 µg/mL (≈ 0.639 µM)
SMILES: COc1cc(-c2c(OC)cc(-c3ccc(OS(C)(=O)=O)cc3)c(OC)c2CO)c(OC)cc1OCc1ccc(C)cc1 [Compound I-368]

IC50 IL-2 [4]: >1 µg/mL
IC50 IL-4 [5]: 0.088 µg/mL (≈ 0.201 µM)
IC50 IL-5 [6]: >1 µg/mL
SMILES: COc1cc(-c2ccc(F)cc2)c(OC)c(C=O)c1-c1ccc(OCC=C(C)C)c(F)c1 [Compound I-379]

IC50 IL-2 [4]: >1 µg/mL
IC50 IL-4 [5]: 0.075 µg/mL (≈ 0.13 µM)
IC50 IL-5 [6]: 0.04 µg/mL (≈ 0.0694 µM)
SMILES: COc1cc(-c2ccc(OS(C)(=O)=O)cc2)c(OC)c(OS(C)(=O)=O)c1-c1ccc(OCCC=C(C)C)cc1 [Compound I-387]

IC50 IL-2 [4]: >1 µg/mL
IC50 IL-4 [5]: 0.001 to 0.01 µg/mL
IC50 IL-5 [6]: >1 µg/mL
SMILES: COc1cc(-c2ccc(OS(C)(=O)=O)cc2)c(OC)c(OS(C)(=O)=O)c1-c1ccc(OS(=O)(=O)c2ccc(C)cc2)c(OS(C)(=O)=O)c1 [Compound I-395]

IC50 IL-2 [4]: >1 µg/mL
IC50 IL-4 [5]: 0.013 µg/mL (≈ 0.0172 µM)
IC50 IL-5 [6]: >1 µg/mL
SMILES: COc1cc(-c2ccc(OS(C)(=O)=O)cc2)c(OC)c(OS(C)(=O)=O)c1-c1ccc(OCc2ccc(-c3ccccc3)cc2)c(OS(C)(=O)=O)c1 [Compound I-403]

From patent publication US7101915B1, “P-terphenyl compounds” (Shionogi & Co., Ltd., priority 1996, dated 2006)
